System: NCI-H1417 complex spheroids, growth % test/control
Assay: Anticancer human tumor NCI-H1417 cell line growth inhibition [Asc];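 further: spheroids exposed to compounds for 7 days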;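 on viability, T/C: 100% = DMSO vehicle control wells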
Conditions: for IC50: curve of first compound; for viability, T/C: stronger effect = lower value; active means viability on the fitted dose curve at most 10% of control; inactive means the rest
Procedure, shortened: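 Tumor cells were grown as complex spheroids with human endothelial cells (HUVEC) and human mesenchymal stem cells as stroma. Agents were tested alone and in combination, in half-log steps down from the clinical Cmax, or from 10 microM where Cmax was unknown.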

[1] = second compound 0.1 µM, first compound 0.00316 µM
[2] = second compound 0.1 µM, first compound 0.01 µM
[3] = second compound 0.1 µM, first compound 0.0316 µM
[4] = second compound 0.1 µM, first compound 0.1 µM
[5] = second compound 0.316 µM, first compound 0.00316 µM
[6] = second compound 0.316 µM, first compound 0.01 µM
[7] = second compound 0.316 µM, first compound 0.0316 µM
[8] = second compound 0.316 µM, first compound 0.1 µM
[9] = second compound 1 µM, first compound 0.00316 µM
[10] = second compound 1 µM, first compound 0.01 µM
[11] = second compound 1 µM, first compound 0.0316 µM
[12] = second compound 1 µM, first compound 0.1 µM
[13] = second compound 3.16 µM, first compound 0.00316 µM
[14] = second compound 3.16 µM, first compound 0.01 µM
[15] = second compound 3.16 µM, first compound 0.0316 µM
[16] = second compound 3.16 µM, first compound 0.1 µM
[17] = second compound 10 µM, first compound 0.00316 µM
[18] = second compound 10 µM, first compound 0.01 µM
[19] = second compound 10 µM, first compound 0.0316 µM
[20] = second compound 10 µM, first compound 0.1 µM

COc1c(OCCCN2CCOCC2)ccc2c3n(c(=NC(=O)c4cnc(N)nc4)nc12)CCN3 + Cc1c(S(C)(=O)=O)c(-c2cc(F)cc(N3CCN(c4ccc(NS(=O)(=O)c5ccc(NC(CCN6CCC(C(=O)OCCCP(=O)(O)O)CC6)CSc6ccccc6)c(S(=O)(=O)C(F)(F)F)c5)cc4)CC3)c2)c(-c2ccc(Cl)cc2)n1C(C)C
87.7 nM: IC50 (second compound 0.1 µM)
inactive: viability, T/C [1] 79.6% | viability, T/C [2] 80.2% | viability, T/C [3] 60.5% | viability, T/C [4] 45.7% | viability, T/C (second compound 0.1 µM, first compound 0.316 µM) 34.8% | viability, T/C (second compound 0.1 µM, first compound 1 µM) 14.1% | viability, T/C [5] 46.7% | viability, T/C [6] 43% | viability, T/C [7] 24.1% | viability, T/C [8] 12.7% | viability, T/C [9] 14.9% | viability, T/C [10] 9.99%
active: viability, T/C (second compound 0.316 µM, first compound 0.316 µM) 10.1% | viability, T/C (second compound 0.316 µM, first compound 1 µM) 3.24% | viability, T/C [11] 8.47% | viability, T/C [12] 2.77% | viability, T/C (second compound 1 µM, first compound 0.316 µM) 1.93% | viability, T/C (second compound 1 µM, first compound 1 µM) 0.85% | viability, T/C [13] 2.73% | viability, T/C [14] 2.65% | viability, T/C [15] 1.29% | viability, T/C [16] 0.44% | viability, T/C (second compound 3.16 µM, first compound 0.316 µM) 0.22% | viability, T/C (second compound 3.16 µM, first compound 1 µM) 0.21% | viability, T/C [17] 2.03% | viability, T/C [18] 1.93% | viability, T/C [19] 1.06% | viability, T/C [20] 0.31% | viability, T/C (second compound 10 µM, first compound 0.316 µM) 0.21% | viability, T/C (second compound 10 µM, first compound 1 µM) 0.23%
< 3.16 nM: IC50 (second compound 0.316 µM) | IC50 (second compound 1 µM) | IC50 (second compound 3.16 µM) | IC50 (second compound 10 µM)

NC(=O)C(=Cn1cnc(-c2cc(C(F)(F)F)cc(C(F)(F)F)c2)n1)c1cncnc1 + Cc1c(S(C)(=O)=O)c(-c2cc(F)cc(N3CCN(c4ccc(NS(=O)(=O)c5ccc(NC(CCN6CCC(C(=O)OCCCP(=O)(O)O)CC6)CSc6ccccc6)c(S(=O)(=O)C(F)(F)F)c5)cc4)CC3)c2)c(-c2ccc(Cl)cc2)n1C(C)C
active: viability, T/C (second compound 0.1 µM, first compound 0.0949 µM) 8.22% | viability, T/C (second compound 0.1 µM, first compound 0.3 µM) 3.52% | viability, T/C (second compound 0.316 µM, first compound 0.0949 µM) 3.84% | viability, T/C (second compound 0.316 µM, first compound 0.3 µM) 1.35% | viability, T/C (second compound 1 µM, first compound 0.000949 µM) 8.75% | viability, T/C (second compound 1 µM, first compound 0.003 µM) 8.33% | viability, T/C (second compound 1 µM, first compound 0.00949 µM) 5.84% | viability, T/C (second compound 1 µM, first compound 0.03 µM) 3.45% | viability, T/C (second compound 1 µM, first compound 0.0949 µM) 1.82% | viability, T/C (second compound 1 µM, first compound 0.3 µM) 0.83% | viability, T/C (second compound 3.16 µM, first compound 0.000949 µM) 2.8% | viability, T/C (second compound 3.16 µM, first compound 0.003 µM) 2.41% | viability, T/C (second compound 3.16 µM, first compound 0.00949 µM) 2.15% | viability, T/C (second compound 3.16 µM, first compound 0.03 µM) 2.26% | viability, T/C (second compound 3.16 µM, first compound 0.0949 µM) 1.59% | viability, T/C (second compound 3.16 µM, first compound 0.3 µM) 0.92% | viability, T/C (second compound 10 µM, first compound 0.000949 µM) 2.33% | viability, T/C (second compound 10 µM, first compound 0.003 µM) 1.83% | viability, T/C (second compound 10 µM, first compound 0.00949 µM) 2.16% | viability, T/C (second compound 10 µM, first compound 0.03 µM) 2.37% | viability, T/C (second compound 10 µM, first compound 0.0949 µM) 1.29% | viability, T/C (second compound 10 µM, first compound 0.3 µM) 0.5%
< 0.949 nM: IC50 (second compound 0.316 µM) | IC50 (second compound 1 µM) | IC50 (second compound 3.16 µM) | IC50 (second compound 10 µM)
inactive: viability, T/C (second compound 0.1 µM, first compound 0.000949 µM) 75.4% | viability, T/C (second compound 0.1 µM, first compound 0.003 µM) 77.7% | viability, T/C (second compound 0.1 µM, first compound 0.00949 µM) 51.9% | viability, T/C (second compound 0.1 µM, first compound 0.03 µM) 24.1% | viability, T/C (second compound 0.316 µM, first compound 0.000949 µM) 38.6% | viability, T/C (second compound 0.316 µM, first compound 0.003 µM) 29.7% | viability, T/C (second compound 0.316 µM, first compound 0.00949 µM) 20.7% | viability, T/C (second compound 0.316 µM, first compound 0.03 µM) 10.5%
11.1 nM: IC50 (second compound 0.1 µM)

NC1CCC(NC2CC2c2ccccc2)CC1 (stereo not given) + Cc1c(S(C)(=O)=O)c(-c2cc(F)cc(N3CCN(c4ccc(NS(=O)(=O)c5ccc(NC(CCN6CCC(C(=O)OCCCP(=O)(O)O)CC6)CSc6ccccc6)c(S(=O)(=O)C(F)(F)F)c5)cc4)CC3)c2)c(-c2ccc(Cl)cc2)n1C(C)C
> 100 nM: IC50 (second compound 0.1 µM)
active: viability, T/C (second compound 3.16 µM, first compound 0.000316 µM) 1.88% | viability, T/C (second compound 3.16 µM, first compound 0.001 µM) 1.85% | viability, T/C [13] 2.09% | viability, T/C [14] 1.09% | viability, T/C [15] 1.14% | viability, T/C [16] 2.64% | viability, T/C (second compound 10 µM, first compound 0.000316 µM) 1.53% | viability, T/C (second compound 10 µM, first compound 0.001 µM) 1.86% | viability, T/C [17] 1.9% | viability, T/C [18] 1.64% | viability, T/C [19] 2.09% | viability, T/C [20] 1.63%
< 0.316 nM: IC50 (second compound 0.316 µM) | IC50 (second compound 1 µM) | IC50 (second compound 3.16 µM) | IC50 (second compound 10 µM)
inactive: viability, T/C (second compound 0.1 µM, first compound 0.000316 µM) 66.5% | viability, T/C (second compound 0.1 µM, first compound 0.001 µM) 69% | viability, T/C [1] 61.8% | viability, T/C [2] 65.1% | viability, T/C [3] 65.7% | viability, T/C [4] 64.3% | viability, T/C (second compound 0.316 µM, first compound 0.000316 µM) 45.1% | viability, T/C (second compound 0.316 µM, first compound 0.001 µM) 43.2% | viability, T/C [5] 34.7% | viability, T/C [6] 40.1% | viability, T/C [7] 38.8% | viability, T/C [8] 38.8% | viability, T/C (second compound 1 µM, first compound 0.000316 µM) 12.5% | viability, T/C (second compound 1 µM, first compound 0.001 µM) 14.6% | viability, T/C [9] 16.3% | viability, T/C [10] 11.2% | viability, T/C [11] 16.2% | viability, T/C [12] 15.7%

Source: PubChem BioAssay AID1963440 (Molecular Pharmacology Branch, DTP, NCI, 2024)
